Data reported in ChEMBL document CHEMBL1156451 (J Biol Chem, 2007).
Values after ≈ are worked out from the molar mass of the structure shown. Active and inactive are the calls of the source. No cut-off for these calls is given here. Where a SMILES comes first, the peptide text is derived from it.

Assays:
HeLa = assay: Cytotoxicity against human HeLa cells at 100 ug/ml after 24 hrs by MTT assay relative to control; format: functional
[1] = Toxicity in human erythrocytes assessed as hemolysis at 100 ug/ml; format: cell-based, Erythrocyte; settings: read-out: Activity
Escherichia coli [2] = assay: Antibacterial activity against Escherichia coli ATCC 25922 after 24 hrs in Mueller-Hinton broth medium; format: functional
Acinetobacter baumannii = assay: Antibacterial activity against Acinetobacter baumannii ATCC 19606 after 24 hrs in Mueller-Hinton broth medium; format: functional
[3] = system: Bordetella bronchiseptica; assay: Antibacterial activity against Bordetella bronchiseptica CUN 11844-99 after 24 hrs in Mueller-Hinton broth medium; format: functional
Brucella abortus [4] = assay: Antibacterial activity against Brucella abortus 9.49 (per-) after 48 hrs in Mueller-Hinton broth medium; format: functional
Pseudomonas aeruginosa = assay: Antibacterial activity against Pseudomonas aeruginosa CUN 4158-02 after 24 hrs in Mueller-Hinton broth medium; format: functional
Staphylococcus aureus = assay: Antibacterial activity against methicillin-resistant Staphylococcus aureus ATCC 43300 after 24 hrs in Mueller-Hinton broth medium; format: functional
Brucella abortus [5] = assay: Antibacterial activity against Brucella abortus 9.19 (per-) after 24 hrs in Mueller-Hinton broth medium; format: functional
Escherichia coli [6] = assay: Antibacterial activity against Escherichia coli K12 ATCC 23716 after 24 hrs in Mueller-Hinton broth medium; format: functional
Escherichia coli [7] = assay: Antibacterial activity against Escherichia coli K12 ATCC 23716 in 10% Luria-Bertani medium/90% Hepes buffer at pH 7.0; format: functional

**Q.** What does the source list for CC[C@H](C)[C@H](NC(=O)[C@H](CCCCN)NC(=O)[C@H](CCCCN)NC(=O)[C@H](CO)NC(=O)[C@@H](NC(=O)CNC(=O)[C@H](CCCNC(=N)N)NC(=O)[C@H](CC(C)C)NC(=O)[C@@H](NC(=O)[C@@H](N)CCCCN)[C@@H](C)CC)C(C)C)C(=O)N[C@@H](CCSC)C(=O)N[C@@H](CCCNC(=N)N)C(=O)N[C@H](C(=O)N[C@@H](Cc1ccccc1)C(=O)N[C@@H](CC(C)C)C(=O)N[C@@H](CCCNC(=N)N)C(=O)N[C@@H](CCCNC(=N)N)C(N)=O)[C@@H](C)O (H-KILRGVSKKIMRTFLRR-NH2)?
**A.** Activity (HeLa): inactive; hemolysis at 100 ug/ml [1]: < 5%; MBC (Escherichia coli [2]; ATCC 25922, 24 h): 32 µg/mL (≈ 15.2 µM); MIC (Escherichia coli [2]; ATCC 25922, 24 h): 32 µg/mL (≈ 15.2 µM); MBC (Acinetobacter baumannii; ATCC 19606, 24 h): 16 µg/mL (≈ 7.61 µM); MIC (Acinetobacter baumannii; ATCC 19606, 24 h): 8 µg/mL (≈ 3.81 µM); MBC [3]: 8 µg/mL (≈ 3.81 µM); MIC [3]: 8 µg/mL (≈ 3.81 µM); MIC (Brucella abortus [4]): 16 µg/mL (≈ 7.61 µM); MBC (Pseudomonas aeruginosa): 128 µg/mL (≈ 60.9 µM); MIC (Pseudomonas aeruginosa): 128 µg/mL (≈ 60.9 µM); MBC (Staphylococcus aureus; ATCC 43300, 24 h): 128 µg/mL (≈ 60.9 µM); MIC (Staphylococcus aureus; ATCC 43300, 24 h): 128 µg/mL (≈ 60.9 µM); MBC (Brucella abortus [5]): 64 µg/mL (≈ 30.5 µM); MBC (Escherichia coli [6]; K12, 24 h): 16 µg/mL (≈ 7.61 µM); MIC (Escherichia coli [6]; K12, 24 h): 8 µg/mL (≈ 3.81 µM); MBC (Escherichia coli [7]): 8 µg/mL (≈ 3.81 µM); MIC (Escherichia coli [7]): 4 µg/mL (≈ 1.9 µM)

**Q.** For CC[C@H](C)[C@H](NC(=O)[C@H](CCCNC(=N)N)NC(=O)[C@H](CCCCN)NC(=O)[C@H](CO)NC(=O)[C@@H](NC(=O)CNC(=O)[C@H](CCCNC(=N)N)NC(=O)[C@H](CC(C)C)NC(=O)[C@@H](NC(=O)[C@@H](N)CCCCN)[C@@H](C)CC)C(C)C)C(=O)N[C@@H](CC(C)C)C(=O)N[C@H](C(=O)NCC(=O)N[C@@H](CCCCN)C(=O)N[C@@H](CCCCN)C(N)=O)[C@@H](C)O (H-KILRGVSKRILTGKK-NH2), which Activity (HeLa) is on record?
**A.** The Activity was “inactive”.

**Q.** And the hemolysis at 100 ug/ml [1]?
**A.** Its hemolysis at 100 ug/ml is under 5%.

**Q.** And the MBC (Escherichia coli [2]; ATCC 25922, 24 h)?
**A.** The MBC was over 256 µg/mL.

**Q.** What about the MIC (Escherichia coli [2]; ATCC 25922, 24 h) of the same compound?
**A.** The MIC was over 256 µg/mL.

**Q.** What about the MBC (Acinetobacter baumannii; ATCC 19606, 24 h) of the same compound?
**A.** Its MBC is over 128 µg/mL.

**Q.** And the MIC (Acinetobacter baumannii; ATCC 19606, 24 h)?
**A.** Its MIC is over 128 µg/mL.

**Q.** And the MBC [3]?
**A.** The MBC was over 64 µg/mL.

**Q.** And the MIC [3]?
**A.** The MIC was over 64 µg/mL.

**Q.** And the MBC (Pseudomonas aeruginosa)?
**A.** Its MBC is 128 µg/mL (≈ 75.5 µM).

**Q.** And the MIC (Pseudomonas aeruginosa)?
**A.** Its MIC is 128 µg/mL (≈ 75.5 µM).

**Q.** What about the MBC (Staphylococcus aureus; ATCC 43300, 24 h) of the same compound?
**A.** The MBC was over 256 µg/mL.

**Q.** And the MIC (Staphylococcus aureus; ATCC 43300, 24 h)?
**A.** The MIC was over 256 µg/mL.

**Q.** What about the MBC (Escherichia coli [6]; K12, 24 h) of the same compound?
**A.** The MBC was over 128 µg/mL.

**Q.** And the MIC (Escherichia coli [6]; K12, 24 h)?
**A.** Its MIC is over 128 µg/mL.

**Q.** What about the MBC (Escherichia coli [7]) of the same compound?
**A.** Its MBC is 100 µg/mL (≈ 59 µM).

**Q.** And the MIC (Escherichia coli [7])?
**A.** Its MIC is 50 µg/mL (≈ 29.5 µM).

**Q.** Which results are given for CC[C@H](C)[C@H](NC(=O)[C@H](CCCNC(=N)N)NC(=O)[C@H](CCCNC(=N)N)NC(=O)[C@H](CC(C)C)NC(=O)[C@H](Cc1ccccc1)NC(=O)[C@@H](NC(=O)[C@H](CCCNC(=N)N)NC(=O)[C@H](CCSC)NC(=O)[C@@H](NC(=O)[C@H](CCCCN)NC(=O)[C@H](CCCCN)NC(=O)[C@H](CO)NC(=O)[C@@H](NC(=O)[C@@H](N)CCCCN)[C@@H](C)CC)[C@@H](C)CC)[C@@H](C)O)C(=O)N[C@@H](CO)C(=O)N[C@@H](CCCCN)C(=O)N[C@@H](CC(=O)O)C(=O)N[C@H](C(=O)N[C@@H](CC(C)C)C(=O)N[C@H](C(=O)NCC(=O)N[C@@H](CCCCN)C(=O)N[C@@H](CCCCN)C(N)=O)[C@@H](C)O)[C@@H](C)CC (H-KISKKIMRTFLRRISKDILTGKK-NH2)?
**A.** Activity (HeLa): inactive; hemolysis at 100 ug/ml [1]: < 5%; MBC (Escherichia coli [2]; ATCC 25922, 24 h): 4 µg/mL (≈ 1.45 µM); MIC (Escherichia coli [2]; ATCC 25922, 24 h): 4 µg/mL (≈ 1.45 µM); MBC (Acinetobacter baumannii; ATCC 19606, 24 h): 4 µg/mL (≈ 1.45 µM); MIC (Acinetobacter baumannii; ATCC 19606, 24 h): 4 µg/mL (≈ 1.45 µM); MBC [3]: 1 µg/mL (≈ 0.362 µM); MIC [3]: 1 µg/mL (≈ 0.362 µM); MIC (Brucella abortus [4]): 2 µg/mL (≈ 0.725 µM); MBC (Pseudomonas aeruginosa): 4 µg/mL (≈ 1.45 µM); MIC (Pseudomonas aeruginosa): 4 µg/mL (≈ 1.45 µM); MBC (Staphylococcus aureus; ATCC 43300, 24 h): > 256 µg/mL; MIC (Staphylococcus aureus; ATCC 43300, 24 h): > 256 µg/mL; MBC (Brucella abortus [5]): 64 µg/mL (≈ 23.2 µM); MBC (Escherichia coli [6]; K12, 24 h): 4 µg/mL (≈ 1.45 µM); MIC (Escherichia coli [6]; K12, 24 h): 4 µg/mL (≈ 1.45 µM); MBC (Escherichia coli [7]): 12.5 µg/mL (≈ 4.53 µM); MIC (Escherichia coli [7]): 12.5 µg/mL (≈ 4.53 µM)

**Q.** For CC[C@H](C)[C@H](NC(=O)[C@H](CCCNC(=N)N)NC(=O)[C@H](CCCCN)NC(=O)[C@H](CO)NC(=O)[C@@H](NC(=O)[C@@H](N)CCCCN)[C@@H](C)CC)C(=O)N[C@@H](CC(C)C)C(=O)N[C@H](C(=O)NCC(=O)N[C@@H](CCCCN)C(=O)N[C@@H](CCCCN)C(=O)O)[C@@H](C)O (H-KISKRILTGKK-OH), which Activity (HeLa) is on record?
**A.** Its Activity is “inactive”.

**Q.** And the hemolysis at 100 ug/ml [1]?
**A.** The hemolysis at 100 ug/ml was under 5%.

**Q.** And the MBC (Escherichia coli [2]; ATCC 25922, 24 h)?
**A.** The MBC was over 256 µg/mL.

**Q.** And the MIC (Escherichia coli [2]; ATCC 25922, 24 h)?
**A.** The MIC was over 256 µg/mL.

**Q.** And the MBC (Acinetobacter baumannii; ATCC 19606, 24 h)?
**A.** The MBC was over 256 µg/mL.

**Q.** And the MIC (Acinetobacter baumannii; ATCC 19606, 24 h)?
**A.** The MIC was over 256 µg/mL.

**Q.** What about the MBC [3] of the same compound?
**A.** Its MBC is over 256 µg/mL.

**Q.** And the MIC [3]?
**A.** The MIC was over 256 µg/mL.

**Q.** And the MIC (Brucella abortus [4])?
**A.** The MIC was over 256 µg/mL.

**Q.** What about the MBC (Pseudomonas aeruginosa) of the same compound?
**A.** Its MBC is over 256 µg/mL.

**Q.** And the MIC (Pseudomonas aeruginosa)?
**A.** Its MIC is over 256 µg/mL.

**Q.** And the MBC (Staphylococcus aureus; ATCC 43300, 24 h)?
**A.** The MBC was over 256 µg/mL.

**Q.** What about the MIC (Staphylococcus aureus; ATCC 43300, 24 h) of the same compound?
**A.** Its MIC is over 256 µg/mL.

**Q.** And the MBC (Brucella abortus [5])?
**A.** Its MBC is over 256 µg/mL.

**Q.** What about the MBC (Escherichia coli [6]; K12, 24 h) of the same compound?
**A.** Its MBC is over 256 µg/mL.

**Q.** And the MIC (Escherichia coli [6]; K12, 24 h)?
**A.** Its MIC is over 256 µg/mL.

**Q.** What about the MBC (Escherichia coli [7]) of the same compound?
**A.** The MBC was over 200 µg/mL.

**Q.** And the MIC (Escherichia coli [7])?
**A.** The MIC was 200 µg/mL (≈ 157 µM).

**Q.** What does the source list for POLYMYXIN B?
**A.** Activity (HeLa): inactive; MBC (Escherichia coli [2]): 0.5 µg/mL; MIC (Escherichia coli [2]): 0.5 µg/mL; MBC (Acinetobacter baumannii): 0.5 µg/mL; MIC (Acinetobacter baumannii): 0.5 µg/mL; MBC [3]: 0.5 µg/mL; MIC [3]: 0.5 µg/mL; MIC (Brucella abortus [4]): 0.25 µg/mL; MBC (Pseudomonas aeruginosa): 0.25 µg/mL; MIC (Pseudomonas aeruginosa): 0.25 µg/mL; MIC (Staphylococcus aureus): 32 µg/mL; MBC (Brucella abortus [5]): 0.5 µg/mL; MBC (Escherichia coli [6]): 0.125 µg/mL; MIC (Escherichia coli [6]): 0.125 µg/mL; MBC (Escherichia coli [7]): 3.2 µg/mL; MIC (Escherichia coli [7]): 2.4 µg/mL
